Results on 57 compounds are retold here after patent US9314468B2, “Chemokine receptor modulators” (Altiris Therapeutics, Inc., priority 2008, dated 2016).

The term IC50 denotes the concentration at which inhibition is half-maximal.

Chain of CXCR4 (P61073 whole entry): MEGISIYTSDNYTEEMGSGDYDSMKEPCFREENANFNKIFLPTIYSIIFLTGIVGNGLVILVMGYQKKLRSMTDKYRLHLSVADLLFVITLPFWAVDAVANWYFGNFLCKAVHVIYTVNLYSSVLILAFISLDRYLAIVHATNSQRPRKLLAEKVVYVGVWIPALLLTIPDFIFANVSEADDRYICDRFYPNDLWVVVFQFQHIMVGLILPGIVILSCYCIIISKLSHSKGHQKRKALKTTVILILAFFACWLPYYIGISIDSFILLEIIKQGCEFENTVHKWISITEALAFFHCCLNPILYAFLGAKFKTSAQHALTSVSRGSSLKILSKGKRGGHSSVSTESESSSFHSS

The test has as its target CXCR4 (Homo sapiens (Human), UniProt P61073). The test is described as follows: Functional calcium mobilization assay (SDF-1α induced). It counts as cell-based. As to conditions: CEM cells, SDF-1α challenge at EC80-EC90; read-out: Ca Flux IC50. On the procedure: Functional modulation of CXCR4 was determined by calcium mobilization assay using leukemic lymphoid CEM cells, which naturally express high levels of CXCR4. Generally, the assay is carried out as follows: Cells are grown in vitro to confluency. On the day of the assay, cells are removed from the incubator, culture medium removed and replaced with a calcium sensitive dye (Calcium3 assay kit; Molecular Devices, Sunnyvale, Calif.). The cells are allowed to dye load for 45-60 min at 37° C. in the cell culture incubator and then allowed to equilibrate to room temperature for no more than 15 min before assay.
Compound plates were generated containing up to 3% dimethyl sulfoxide in media kept at room temperature. Test compounds were added to the cells at a 1:3 dilution, and calcium mobilization was measured using a Flex Station fluorescence imager (Molecular Devices). This first read was used to determine direct agonist activation of the CXCR4 receptor by the test compounds. […] Full dose response curves were generated daily for SDF-1a to calculate IC50 concentrations. The IC50 values are reported. In cases, where one was not determined, a percent inhibition at the 1 μM concentration was extrapolated.
Functional calcium mobilization assay was conducted as described in Example 27.
With `Cn1c(CN(CCCCN)C2CCCc3cccnc32)nnc1-c1ccccc1` (stereo not drawn), the IC50 was determined as 3200 nM.

In the case of `NCCCCN(Cc1nccc2c1[nH]c1cc(F)ccc12)C1CCCc2cccnc21` (stereo not drawn), the IC50 was 565 nM.

Take `c1cnc2c(c1)CCCC2N(CCCCNCC1CC1)Cc1nccc2c1[nH]c1ccccc12` (stereo not drawn): the IC50 worked out at 729 nM.

Turning to `CCNCCCCN(Cc1nccc2c1[nH]c1ccccc12)C1CCCc2cccnc21` (stereo not drawn), the IC50 was 168 nM.

With `CN(C)C(=O)NCCCCN(Cc1nccc2c1[nH]c1ccccc12)C1CCCc2cccnc21` (stereo not drawn), the IC50 was 38 nM.

As to `CC(=O)NCCCCN(Cc1nccc2c1[nH]c1ccccc12)C1CCCc2cccnc21` (stereo not drawn), the IC50 came to 1720 nM.

Turning to `CS(=O)(=O)N1CCN(CCN(Cc2nccc3c2[nH]c2ccccc23)C2CCCc3cccnc32)CC1` (stereo not drawn), the IC50 is 10000 nM.

On to `NCCCCN(Cc1cc2c(cn1)[nH]c1ccccc12)C1CCCc2cccnc21` (stereo not drawn), for which the IC50 was determined as 69 nM.

In the case of `Cn1c2ccccc2c2ccnc(CN(CCCCN)C3CCCc4cccnc43)c21` (stereo not drawn), the IC50 is 10 nM.

Regarding `c1cnc2c(c1)CCCC2N(CCCN1CCNCC1)Cc1nccc2c1[nH]c1ccccc12` (stereo not drawn), the IC50 was determined as 18 nM.

In the case of `CC(C)(C)C(=O)N1CCN(CCCN(Cc2nccc3c2[nH]c2ccccc23)C2CCCc3cccnc32)CC1` (stereo not drawn), the IC50 came out at 1930 nM.

In the case of `c1cnc2c(c1)CCCC2N(CCCCN1CCNCC1)Cc1nccc2c1[nH]c1ccccc12` (stereo not drawn), the IC50 stood at 1960 nM.

Regarding `Cn1c2ccccc2c2ccnc(CN(CCCCN)[C@H]3CCCc4cccnc43)c21`, the IC50 was 22 nM.

In the case of `CCNCCCCN(Cc1nccc2c1[nH]c1ccccc12)[C@H]1CCCc2cccnc21`, the IC50 is 699 nM.

As to `c1cnc2c(c1)CCC[C@@H]2N(CCCCNCC1CC1)Cc1nccc2c1[nH]c1ccccc12`, the IC50 turned out to be 451 nM.

For the compound `c1cnc2c(c1)CCC[C@@H]2N(CCCN1CCNCC1)Cc1nccc2c1[nH]c1ccccc12`, the IC50 stood at 87 nM.

As for `CCN(Cc1nccc2c3ccccc3n(CCCN)c12)[C@H]1CCCc2cccnc21`, the IC50 worked out at 997 nM.

Take `NCCCCN(Cc1nccc2c3ccccc3n(Cc3cccnc3)c12)[C@H]1CCCc2cccnc21`: the IC50 worked out at 481 nM.

Consider `NCCCCN(Cc1nccc2c3ccccc3n(CC(=O)N3CCC(O)CC3)c12)[C@H]1CCCc2cccnc21`, for which the IC50 is 212 nM.

On to `CC(C)(C)OC(=O)[C@@H](N)CCCN(Cc1nccc2c1[nH]c1ccccc12)[C@H]1CCCc2cccnc21`, for which the IC50 was 9580 nM.

In the case of `CN1CCN(CCCN(Cc2nccc3c2[nH]c2ccccc23)[C@H]2CCCc3cccnc32)CC1`, the IC50 is 206 nM.

Consider `c1cnc2c(c1)CCC[C@@H]2N(CCCN1CCNCC1)Cc1nccc2c3ccccc3n(CCN3CCOCC3)c12`, for which the IC50 was determined as 24 nM.

`c1ccc(Cn2c3ccccc3c3ccnc(CN[C@H]4CCCc5cccnc54)c32)nc1`: the half-maximal inhibitory concentration (IC50) was found to be 8390 nM.

For the compound `NCCCCN(Cc1nccc2c3ccccc3n(CC(=O)N3CC[S+]([O-])CC3)c12)[C@H]1CCCc2cccnc21`, the IC50 was 61 nM.

Take `c1cnc2c(c1)CCC[C@@H]2N(Cc1nccc2c1[nH]c1ccccc12)CC1CCCNC1` (stereo partly drawn): the IC50 is 3600 nM.

With `c1ccc(Cn2c3ccccc3c3ccnc(CN(CCCN4CCNCC4)[C@H]4CCCc5cccnc54)c32)nc1`, the IC50 came to 176 nM.

In the case of `NCCCCN(Cc1nccc2c3ccccc3n(CC(=O)NC3CCOCC3)c12)[C@H]1CCCc2cccnc21`, the IC50 was determined as 21 nM.

`O=C(Cn1c2ccccc2c2ccnc(CN(CCCCNCc3ccccn3)[C@H]3CCCc4cccnc43)c21)N1CCOCC1`: the IC50 came out at 8650 nM.

`CN1CCN(CCCN(Cc2nccc3c4ccccc4n(CC(=O)N4CCOCC4)c23)[C@H]2CCCc3cccnc32)CC1`: the IC50 was determined as 628 nM.

Turning to `O=C(Cn1c2ccccc2c2ccnc(CN(CCCCNCc3cccnc3)[C@H]3CCCc4cccnc43)c21)N1CCOCC1`, the IC50 is 1400 nM.

`O=C(Cn1c2ccccc2c2ccnc(CN(CCCCNCc3ccncc3)[C@H]3CCCc4cccnc43)c21)N1CCOCC1`: the IC50 amounted to 2830 nM.

Consider `NCCCCN(Cc1nccc2c3ccccc3n(CCC3CCOCC3)c12)[C@H]1CCCc2cccnc21`, for which the IC50 turned out to be 13 nM.

For the compound `NCCCCN(Cc1nccc2c3ccccc3n(CCCN3CCNC(=O)C3)c12)[C@H]1CCCc2cccnc21`, the IC50 is 4 nM.

Consider `NCCCCN(Cc1nccc2c3ccccc3n(CC(=O)N3CCSCC3)c12)[C@H]1CCCc2cccnc21`, for which the IC50 was determined as 78 nM.

With `NCCCCN(Cc1nccc2c3ccccc3n(Cc3ccccc3)c12)[C@H]1CCCc2cccnc21`, the IC50 worked out at 47 nM.

On to `O=C1CN(CCCN(Cc2nccc3c4ccccc4n(CC(=O)N4CCOCC4)c23)[C@H]2CCCc3cccnc32)CCN1`, for which the IC50 worked out at 8720 nM.

For `O=C(Cn1c2ccccc2c2ccnc(CN(CCCN3CCNCC3)[C@H]3CCCc4cccnc43)c21)NC1CCOCC1`, the IC50 amounted to 26 nM.

Take `NCCCCN(Cc1nccc2c3ccccc3n(CC(=O)N3CCCCC3)c12)[C@H]1CCCc2cccnc21`: the IC50 is 270 nM.

With `O=C(Cn1c2ccccc2c2ccnc(CN(CCCN3CCNCC3)[C@H]3CCCc4cccnc43)c21)N1CCCCC1`, the IC50 was 405 nM.

For `c1ccc(Cn2c3ccccc3c3ccnc(CN(CCCN4CCNCC4)[C@H]4CCCc5cccnc54)c32)cc1`, the IC50 amounted to 152 nM.

As for `O=C1CN(CCCN(Cc2nccc3c4ccccc4n(CCCN4C(=O)c5ccccc5C4=O)c23)[C@H]2CCCc3cccnc32)CCN1`, the IC50 amounted to 138 nM.

Consider `O=C(Cn1c2ccccc2c2ccnc(CN(CCCC3CCNCC3)[C@H]3CCCc4cccnc43)c21)N1CCOCC1`, for which the IC50 is 124 nM.

`Cc1cccnc1CN(CCCCN)Cc1nccc2c3ccccc3n(CC(=O)N3CCOCC3)c12`: the IC50 amounted to 583 nM.

Take `O=C1c2ccccc2C(=O)N1CCCn1c2ccccc2c2ccnc(CN(CCCN3CCNCC3)[C@H]3CCCc4cccnc43)c21`: the IC50 is 44 nM.

Regarding `NCCCn1c2ccccc2c2ccnc(CN(CCCN3CCNC(=O)C3)[C@H]3CCCc4cccnc43)c21`, the IC50 was found to be 30 nM.

Consider `N[C@H]1CC[C@H](CN(Cc2nccc3c4ccccc4n(CC(=O)N4CCOCC4)c23)[C@H]2CCCc3cccnc32)CC1`, for which the IC50 came out at 2150 nM.

Turning to `N[C@H]1CC[C@@H](CN(Cc2nccc3c4ccccc4n(CC(=O)N4CCOCC4)c23)[C@H]2CCCc3cccnc32)CC1`, the IC50 came out at 1260 nM.

For `NCCCCN(Cc1nccc2c3ccccc3n(CCCN3CCNCC3=O)c12)[C@H]1CCCc2cccnc21`, the IC50 came to 20 nM.

On to `O=C1CNCCN1CCCn1c2ccccc2c2ccnc(CN(CCCN3CCNCC3)[C@H]3CCCc4cccnc43)c21`, for which the IC50 was 44 nM.

As for `NC(=O)Cn1c2ccccc2c2ccnc(CN(CCCN3CCNCC3)[C@H]3CCCc4cccnc43)c21`, the IC50 came out at 9 nM.

Take `NCCCn1c2ccccc2c2ccnc(CN(CCCN3CCNCC3)[C@H]3CCCc4cccnc43)c21`: the IC50 was 5 nM.

As to `COCCn1c2ccccc2c2ccnc(CN(CCCCN)[C@H]3CCCc4cccnc43)c21`, the IC50 was determined as 20 nM.

`NCCCCN(Cc1nccc2c3ccccc3n(CC3CC3)c12)[C@H]1CCCc2cccnc21`: the IC50 was determined as 4 nM.

In the case of `c1cnc2c(c1)CCC[C@@H]2N(CCCN1CCNCC1)Cc1nccc2c3ccccc3n(CC3CC3)c12`, the IC50 was 14 nM.

Turning to `COCCn1c2ccccc2c2ccnc(CN(CCCN3CCNCC3)[C@H]3CCCc4cccnc43)c21`, the IC50 was 49 nM.

As to `c1cnc2c(c1)CCC[C@@H]2N(CCCN1CCNCC1)Cc1nccc2c3ccccc3n(CCC3CCOCC3)c12`, the IC50 is 1 nM.

Turning to `CC(c1ccccn1)N(CCCCN)Cc1nccc2c3ccccc3n(CC(=O)N3CCOCC3)c12` (stereo not drawn), the IC50 was found to be 423 nM.
